29 compounds from US4156011A, “Sulphur- and oxygen-containing diaryl compounds” (priority 1974, dated 1979) can be followed below.

Data set [1] can be described thus: Solubility of the isolated product. The following applies: for solubility in water (in words) / solubility: water.
Data set [2] is described as follows: Reduction of lipids and cholesterol in rats treated orally. Type of data set: in vivo. The following applies: for inhibition in vivo at 20 mg/kg / inhibition in vivo at 100 mg/kg: Rattus norvegicus, 96 h; for inhibition in vivo at 20 mg/kg: oral 20 mg/kg.
[3] abbreviates: normal diet, oral 50 mg/kg daily, 3 and 5 days.

Counter-ions that a name gives are not always drawn. Like-named read-outs stand apart in the source and are kept apart here.

Take `CC(Oc1ccccc1Sc1ccc(Cl)cc1)C(=O)OCCNCCSCCCCCCCCCCSCCNCCOC(=O)C(C)Oc1ccccc1Sc1ccc(Cl)cc1` (racemic) [CRL 40 247, 6,17-Dithia-3,20-diaza-1,22-docosanediol di-(±)-[2-(4-chlorophenylthio)phenoxy-propionate]]: in data set [1], the “solubility in alcohol (in words)” value is on record as “soluble in alcohol” and the “solubility in water (in words)” value was “insoluble in water”.

Turning to `CC(CNCCO)Oc1ccc(Oc2ccc(Cl)cc2)cc1.Cl` (racemic) [CRL 40 301, (±)-N-Hydroxyethyl-2-[4-(4-chlorophenoxy)-phenoxy]-1-propylamine hydrochloride], the solubility (in general, the dissolved amount per volume that the medium holds) in data set [1] was determined as 200 mg/mL.

The compound `CC(CNC(C)(C)CO)Oc1ccc(Oc2ccc(Cl)cc2)cc1.Cl` (racemic) [CRL 40 302, (±)-N-(β-Hydroxy-α,α-dimethylethyl)-2-[4-(4-chlorophenoxy)-phenoxy]-1-propylamine hydrochloride] had a solubility in data set [1] of 200 mg/mL.

Regarding `CC(Oc1ccc(Sc2ccc(Cl)cc2)cc1)C(=O)O` (racemic) [CRL 40,246, (±)-2-[4-Chlorophenylthio)-phenoxy]-propionic acid], in data set [1], the “solubility in alcohol (in words)” value is “soluble in alcohol” and the “solubility in water (in words)” value is listed as “insoluble in water”.

In the case of `CC(Sc1ccc(Oc2ccc(Cl)cc2)cc1)C(=O)O` (racemic) [CRL 40,281, (±)-2-[4-(4-chlorophenoxy)-phenylthio]-propionic acid], the “solubility in water (in words)” value in data set [1] was “insoluble in water”.

Turning to `CC(Oc1ccc(Oc2ccc(Cl)cc2)cc1)C(=O)O` (racemic) [CRL 40,299, (±)-2-[4-(4-Chlorophenoxy)-phenoxy]-propionic acid], the “solubility in water (in words)” value in data set [1] is “insoluble in water”.

As for `CC(Sc1ccc(Sc2ccc(Cl)cc2)cc1)C(=O)O` (racemic) [CRL 40,351, (±)-2-[p-(p-Chlorophenylthio)-phenylthio]-propionic acid], in data set [1], the “solubility in water (in words)” value is recorded as “water-insoluble”.

Regarding `CC(Oc1ccc(Sc2ccc(Cl)cc2)cc1)C(=O)OCCSCCCCCCCCCCSCCOC(=O)C(C)Oc1ccc(Sc2ccc(Cl)cc2)cc1` (racemic) [CRL 40,390, 3,14-Dithia-1,16-hexadecyl di-(±)-{2-[p-(p-chlorophenylthio)-phenoxy]-propionate}], the inhibition in vivo at 20 mg/kg in data set [2] (4 days, read-out: reduction in the cholesterol) amounted to 25%; in data set [2] (4 days, read-out: reduction in the lipids) it was 25%.

Turning to `CC(COC(=O)CSc1ccc(Sc2ccc(Cl)cc2)cc1)SCCCCCCCCCCSC(C)COC(=O)CSc1ccc(Sc2ccc(Cl)cc2)cc1` (racemic) [CRL 40,395, (±)-2,15-Dimethyl-3,14-dithia-1,16-hexadecyl di-[p-(p-chlorophenylthio)-phenylthio-acetate]], in data set [2] (oral 100 mg/kg, 4 days), the inhibition in vivo at 100 mg/kg was determined as 27% and the “reduction in the (total) lipids” value was determined as 18%.

Turning to `CC(Sc1ccc(Sc2ccc(Cl)cc2)cc1)C(=O)OCCSCCCCCCCCCCSCCOC(=O)C(C)Sc1ccc(Sc2ccc(Cl)cc2)cc1` (racemic) [CRL 40,398, 3,14-Dithia-1,16-hexadecyl di-(±)-{2-[p-(p-chlorophenylthio)-phenylthio]-propionate}], in data set [2] (oral 100 mg/kg, 4 days), the “change in the cholesterol content (in words)” value was “no change in the cholesterol content” and the “reduction in the (total) lipids” value was 17%.

Consider `CC(COC(=O)C(C)(C)Sc1ccc(Sc2ccc(Cl)cc2)cc1)SCCCCCCCCCCSC(C)COC(=O)C(C)(C)Sc1ccc(Sc2ccc(Cl)cc2)cc1` (racemic) [CRL 40,403, (±)-2,15-Dimethyl-3,14-dithia-1,16-hexadecyl di-{2-[p-(p-chlorophenylthio)-phenylthio]-2-methylpropionate}], for which, in data set [2] (oral 100 mg/kg, 4 days), the inhibition in vivo at 100 mg/kg turned out to be 32% and the “reduction in the (total) lipids” value is 10%.

For `CC(Sc1ccc(Oc2ccc(Cl)cc2)cc1)C(=O)OCCSCCCCCCCCCCSCCOC(=O)C(C)Sc1ccc(Oc2ccc(Cl)cc2)cc1` (racemic) [CRL 40,408, 3,14-Dithia-1,16-hexadecyl di-(±)-{2-[p-(p-chlorophenoxy)-phenylthio]-propionate}], in data set [2] (oral 100 mg/kg, 4 days), the inhibition in vivo at 100 mg/kg was 20% and the “reduction in the (total) lipids” value is 17%.

With `CC(COC(=O)C(C)Sc1ccc(Oc2ccc(Cl)cc2)cc1)SCCCCCCCCCCSC(C)COC(=O)C(C)Sc1ccc(Oc2ccc(Cl)cc2)cc1` (racemic) [CRL 40,409, (±)-2,15-Dimethyl-3,14-dithia-1,16-hexadecyl di-(±)-{2-[p-(p-chlorophenoxy)-phenylthio]-propionate}], the “reduction in the (total) lipids” value in data set [2] (oral 100 mg/kg, 4 days) is given as 9-10%.

Consider `CC(Oc1ccc(S(=O)(=O)c2ccc(Cl)cc2)cc1)C(=O)OCCNCCSCCCCCCCCCCSCCNCCOC(=O)C(C)Oc1ccc(S(=O)(=O)c2ccc(Cl)cc2)cc1` (racemic) [CRL 40249, 6,17-Dithia-3,20-diaza-1,22-docosanediol di-(±)-2-[p-(p-chlorophenylsulphonyl)-phenoxy]-propionate], for which, in data set [1], the “solubility in alcohol (in words)” value is “insoluble in water and in alcohol”; the “solubility in water (in words)” value is on record as “insoluble in water”.

`CC(COS(C)(=O)=O)Oc1ccc(Oc2ccc(Cl)cc2)cc1` (racemic) [Example 34, (±)-2-[4-(4-Chlorophenoxy)-phenoxyl]-propyl mesylate]: in data set [1], the “solubility in water (in words)” value is given as “insoluble in water”.

On to `CC(C)(Oc1ccc(Sc2ccc(Cl)cc2)cc1)C(=O)OCCNCCSCCCCCCCCCCSCCNCCOC(=O)C(C)(C)Oc1ccc(Sc2ccc(Cl)cc2)cc1` [CRL 40 240, 6,17-Dithia-3,20-diaza-1,22-docosanediol di-p-(p-chlorophenylthio)-phenoxy-isobutyrate], for which, in data set [1], the “solubility in alcohol (in words)” value is recorded as “soluble in alcohol” and the “solubility in water (in words)” value is given as “insoluble in water”.

On to `CC(C)(Oc1ccc([S+]([O-])c2ccc(Cl)cc2)cc1)C(=O)OCCNCCSCCCCCCCCCCSCCNCCOC(=O)C(C)(C)Oc1ccc([S+]([O-])c2ccc(Cl)cc2)cc1` (centres unmarked) [CRL 40 242, 6,17-Dithia-3,20-diaza-1,22-docosanediol di-[4-(4-chlorosulphinyl)-phenoxy-isobutyrate]], for which, in data set [1], the “solubility in alcohol (in words)” value is reported as “soluble in alcohol” and the “solubility in water (in words)” value is reported as “insoluble in water”.

Regarding `CC(C)(Oc1ccc(Sc2ccc(Cl)cc2)cc1)C(=O)N(CCO)CCSCCCCCCCCCCSCCN(CCO)C(=O)C(C)(C)Oc1ccc(Sc2ccc(Cl)cc2)cc1` [CRL 40 254, 3,20-di[p-(p-chlorophenylthio)phenoxy-isobutyryl]-6,17-dithia-3,20-diaza-1,22-docosanediol], the “solubility in water (in words)” value in data set [1] is “insoluble in water”.

For `CC(C)(Oc1ccc(Oc2ccc(Cl)cc2)cc1)C(=O)NCCO` [CRL 40 309, N-Hydroxyethyl-2-[4-(4-chlorophenoxy)-phenoxy]-2-methylpropionamide], the “solubility in water (in words)” value in data set [1] is recorded as “insoluble in water”.

With `CC(C)(CNCCO)Oc1ccc(Oc2ccc(Cl)cc2)cc1` [CRL 40 311, N-Ethanol-2-[4-(4-chlorophenoxy)-phenoxy]-2-methyl-1-propylamine hydrochloride], the “solubility in water (in words)” value in data set [1] is on record as “soluble in water”.

Turning to `Cl.NC(COc1ccc(Oc2ccc(Cl)cc2)cc1)=NO` [CRL 40 337, 4-(4-Chlorophenoxy)-phenoxy-acetamidoxime hydrochloride], the “solubility in water (in words)” value in data set [1] is “partially soluble in water”.

As for `Cl.N=C(N)COc1ccc(Oc2ccc(Cl)cc2)cc1` [CRL 40 338, 4-(4-Chlorophenoxy)-phenoxy-acetamidine hydrochloride], in data set [1], the “solubility in water (in words)” value was “soluble in water”.

Regarding `CC(C)(Oc1ccc(S(=O)(=O)c2ccc(Cl)cc2)cc1)C(=O)O` [CRL 40,239, 4-(4-chlorophenylsulphonyl)-phenoxy-isobutyric acid], in data set [1], the “solubility in alcohol (in words)” value is “soluble in alcohol” and the “solubility in water (in words)” value was “insoluble in water”.

For `CC(C)(Sc1ccc(Oc2ccc(Cl)cc2)cc1)C(=O)O` [CRL 40,275, 4-(4-chlorophenoxy)-phenylthio-isobutyric acid], the “solubility in water (in words)” value in data set [1] is on record as “insoluble in water”.

Consider `CC(C)(CNCCO)Sc1ccc(Oc2ccc(Cl)cc2)cc1` [CRL 40,279, N-Hydroxyethyl-4-(4-chlorophenoxy)phenylthio-isobutylamine], for which the “solubility in water (in words)” value in data set [1] is listed as “insoluble in water”.

Regarding `O=C(CSc1ccc(Oc2ccc(Cl)cc2)cc1)OCCSCCCCCCCCCCSCCOC(=O)CSc1ccc(Oc2ccc(Cl)cc2)cc1` [CRL 40,284, 3,14-Dithia-1,16-hexadecyl di-[p-(p-chlorophenoxy)-phenylthio-acetate]], the “solubility in water (in words)” value in data set [1] is listed as “water-insoluble”.

Consider `CC(C)(Oc1ccc(Oc2ccc(Cl)cc2)cc1)C(=O)O` [CRL 40,308, 4-(4-Chlorophenoxy)-phenoxy-isobutyric acid], for which the “solubility in water (in words)” value in data set [1] was “insoluble in water”.

`CC(C)(Oc1ccc(S(=O)(=O)c2ccc(Cl)cc2)cc1)C(=O)OCCNCCSCCCCCCCCCCSCCNCCOC(=O)C(C)(C)Oc1ccc(S(=O)(=O)c2ccc(Cl)cc2)cc1` [CRL 40241, 6,17-Dithia-3,20-diaza-1,22-docosanediol di-p-(p-chlorophenylsulphonyl)-phenoxy-isobutyrate]: in data set [1] (hot alcohol), the “solubility in hot alcohol (in words)” value is “soluble in hot alcohol”. Besides, in data set [1], the “solubility in water (in words)” value is on record as “insoluble in water”.

Turning to “p-(p-Chlorophenylthio)-phenylthioacetic acid [CRL 40,386]”, in data set [2] (setting [3]), the “reduction in the concentration of cholesterol in the plasma” value was “about 20%” and the “reduction in the concentration of lipids in the plasma” value was “about 20%”. In data set [2] (oral 100 mg/kg, 4 days), the “reduction in the (total) lipids” value came out at 42% and the “reduction in the cholesterol” value stood at 26%.
